From publication PMC6151550, “Inhibitory Effect of Selaginellins from Selaginella tamariscina (Beauv.) Spring against Cytochrome P450 and Uridine 5′-Diphosphoglucuronosyltransferase Isoforms on Human Liver Microsomes” (Molecules : A Journal of Synthetic Chemistry and Natural …, 2017)

Target: T1, UGT1A9 (Homo sapiens, UniProt O60656)
T1 construct: from tissue; host or cells: human liver microsomes
T1 sequence (O60656 26-530): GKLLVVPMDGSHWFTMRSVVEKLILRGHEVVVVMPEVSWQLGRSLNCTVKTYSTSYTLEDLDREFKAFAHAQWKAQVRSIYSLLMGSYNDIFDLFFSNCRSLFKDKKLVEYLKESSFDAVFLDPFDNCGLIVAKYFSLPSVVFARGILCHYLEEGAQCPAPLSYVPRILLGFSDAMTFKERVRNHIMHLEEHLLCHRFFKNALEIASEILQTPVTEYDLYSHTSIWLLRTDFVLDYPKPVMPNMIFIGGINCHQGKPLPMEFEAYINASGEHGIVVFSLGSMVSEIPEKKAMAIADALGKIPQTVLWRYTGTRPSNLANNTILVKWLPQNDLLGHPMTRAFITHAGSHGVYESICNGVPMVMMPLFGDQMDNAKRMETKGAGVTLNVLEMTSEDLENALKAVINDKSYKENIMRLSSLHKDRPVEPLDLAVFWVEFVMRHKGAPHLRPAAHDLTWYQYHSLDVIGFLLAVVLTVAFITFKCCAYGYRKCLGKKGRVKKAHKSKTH
Experiment: UGT1A9 inhibition (mycophenolic acid glucuronidation) in human liver microsomes, cocktail LC-MS/MS
Type: in vitro ADME
Method: The inhibitory effects of two selaginellins on the metabolism of six UGT probe substrates were evaluated using previously reported method with minor modification. In brief, HLMs (0.25 mg/mL) were activated by incubation in the presence of alamethicin (25 μg/mL) for 15 min on ice. After the addition of UGT isoform-selective substrates and selaginellins (0, 0.5, 2, 5, 20 and 50 μM) the final concentrations of organic solvent (methanol) for the cocktail incubation conditions were 1.0% (v/v). The incubation reaction mixtures were pre-incubated for 5 min. The reaction was initiated by the addition of 5 mM UDPGA and further incubated for 60 min. All reactions were terminated by adding ice-cold acetonitrile containing estrone glucuronide (IS). After mixing and centrifugation, aliquots were injected into a LC-MS/MS as described previously (Table 2). All microsomal incubations were performed in triplicate.
The IC50 values (concentration of the inhibitor causing 50% inhibition of the original enzyme activity) were calculated using WinNonlin software (Pharsight, Mountain View, CA, USA): percentage of control activity = 100 × [1 − (I/(I + IC50))], where I is the inhibitor concentration, and IC50 is the inflection point on the curve.

SMILES | IC50 [µM]
COc1ccc(C(=C2C=CC(=O)C=C2)c2c(-c3ccc(O)cc3)ccc(CO)c2C#Cc2ccc(O)cc2)cc1 [Selaginellin M] | 6.5
O=C1C=CC(=C(c2ccc(O)cc2)c2c(-c3ccc(O)cc3)ccc(CO)c2C#Cc2ccc(O)cc2)C=C1 [Selaginellin] | 8.7
